In general, IC50 refers to the point on the concentration scale where inhibition reaches its midpoint.

The text below walks through data of patent publication US9708336B2, “Metallo-beta-lactamase inhibitors” (priority 2014, dated 2017).

For one test, the target named is VIM-1 (Pseudomonas aeruginosa (strain ATCC 15692 / DSM 22644 / CIP 104116 / JCM 14847 / LMG 12228 / 1C / PRS 101 / PAO1), UniProt A0A0F7KYQ8). Description: Enzyme activity: determination of IC50, fluorescence assay with CCF2-FA substrate (VIM-1). Format: biochemical.
Another test deals with IMP-1 (Serratia marcescens, UniProt P52699). In words: biochemical. Format: biochemical. Particulars: read-out: IMP-1 IC50.
IMP-1, sequence (P52699 whole entry, looked up): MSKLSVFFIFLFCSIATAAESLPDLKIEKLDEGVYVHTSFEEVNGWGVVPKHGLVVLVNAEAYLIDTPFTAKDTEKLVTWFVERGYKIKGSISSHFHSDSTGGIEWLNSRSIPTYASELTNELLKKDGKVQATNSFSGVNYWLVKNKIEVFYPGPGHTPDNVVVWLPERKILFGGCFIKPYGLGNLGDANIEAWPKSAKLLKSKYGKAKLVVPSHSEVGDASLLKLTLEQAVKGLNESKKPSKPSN
The next test deals with NDM-1 (Klebsiella pneumoniae, UniProt C7C422). In words: biochemical. It is filed as biochemical. Particulars: read-out: NDM-1 IC50.
NDM-1, sequence (C7C422 whole entry, looked up, species assumed): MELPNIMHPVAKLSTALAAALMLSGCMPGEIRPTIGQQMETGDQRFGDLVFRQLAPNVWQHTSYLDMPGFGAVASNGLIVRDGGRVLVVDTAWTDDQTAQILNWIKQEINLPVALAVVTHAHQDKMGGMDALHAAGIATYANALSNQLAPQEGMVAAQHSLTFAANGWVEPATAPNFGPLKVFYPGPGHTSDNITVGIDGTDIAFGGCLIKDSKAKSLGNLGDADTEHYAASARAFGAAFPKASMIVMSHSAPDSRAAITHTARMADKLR
For test [1], the system named is Serratia marcescens expressing IMP-1 (CL5741). In words: Antibiotic potentiation activity: synergistic concentration (MITC95) with imipenem, OD600 growth. It is filed as cell-based. Particulars: for Serratia marcescens expressing IMP-1 (CL5741) MITC95: concentration giving 95% inhibition of bacterial growth; for Serratia marcescens MITC95: Serratia marcescens expressing IMP-1 (CL5741), 95% growth inhibition. The essentials: (§1)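 Growth after 22–24 h at 35 °C is measured spectrophotometrically for bacteria incubated with compound plus imipenem (4 μg/ml in-well, or 1 μg/ml). Cells come from overnight agar colonies resuspended in saline and diluted 1:100 in 1.1× CAMHB.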

The subject of test [2] is Escherichia coli expressing NDM-1 (CLB30005). The description is as above. It is filed as cell-based. Particulars: for Escherichia coli expressing NDM-1 (CLB 30005) MITC95: concentration giving 95% inhibition of bacterial growth; for Escherichia coli MITC95: Escherichia coli expressing NDM-1 (CLB30005), 95% growth inhibition. The essentials: as §1
The test system of test [3] is Klebsiella pneumoniae expressing VIM-1 (IHMA599644). The test is described as above. As to conditions: for Klebsiella pneumoniae expressing VIM-1 (IHMA 599644) MITC95: concentration giving 95% inhibition of bacterial growth; for Klebsiella pneumoniae MITC95: Klebsiella pneumoniae expressing VIM-1 (IHMA599644), 95% growth inhibition. Format: cell-based. The essentials:
as §1

The mark [4] stands for this setting: fluorescence assay with CCF2-FA substrate, read-out: VIM-1 IC50.
[5] abbreviates: fluorescence assay with CCF2-FA substrate.
Setting [6] is: IMP-1 enzyme, CCF2-FA fluorescence assay.
[7] abbreviates: NDM-1 enzyme, CCF2-FA fluorescence assay.

Where two headings read alike, the source gives them in different places. Bounds are passed on as bounds.

Consider `CC1(c2ccc(-c3cccc(S(N)(=O)=O)c3-c3nn[nH]n3)cc2)SC(=O)NC1=O` (stereo not drawn) [Example 75, 4′-(5-methyl-2,4-dioxo-1,3-thiazolidin-5-yl)-2-(2H-tetrazol-5-yl)biphenyl-3-sulfonamide], for which the half-inhibitory concentration (IC50) on VIM-1 (setting [4]) was 98.1 nM; on IMP-1 (setting [5]) it was 9.96 nM; at NDM-1 (setting [5]), 4.57 nM. The “Serratia marcescens expressing IMP-1 (CL5741) MITC95” value in test [1] amounted to 3.906 µM. The “Escherichia coli expressing NDM-1 (CLB 30005) MITC95” value in test [2] came out at 6.25 µM. Moreover, the “Klebsiella pneumoniae expressing VIM-1 (IHMA 599644) MITC95” value in test [3] was more than 200 µM.

For `NS(=O)(=O)c1cccc(C#Cc2cccnc2)c1-c1nn[nH]n1` [Example 147, 3-(pyridin-3-ylethynyl)-2-(2H-tetrazol-5-yl)benzenesulfonamide], the IC50 at VIM-1 (setting [4]) was found to be 1100 nM; on IMP-1 (setting [5]), 103 nM; at NDM-1 (setting [5]) it was 16.4 nM. In addition, in test [1], the “Serratia marcescens expressing IMP-1 (CL5741) MITC95” value turned out to be 18.75 µM. Also, the “Escherichia coli expressing NDM-1 (CLB 30005) MITC95” value in test [2] was found to be 3.125 µM. Further, the “Klebsiella pneumoniae expressing VIM-1 (IHMA 599644) MITC95” value in test [3] was more than 200 µM.

Take `NS(=O)(=O)c1cccc(-c2ccc3[nH]c(=O)[nH]c3c2)c1-c1nn[nH]n1` [Example 84, 3-(2-oxo-2,3-dihydro-1H-benzimidazol-5-yl)-2-(2H-tetrazol-5-yl)benzenesulfonamide]: the IC50 is 23.2 nM on VIM-1 (setting [4]), 708 nM at IMP-1 (setting [5]) and 3.08 nM at NDM-1 (setting [5]). In test [1], the “Serratia marcescens expressing IMP-1 (CL5741) MITC95” value came to 50 µM. Further, the “Escherichia coli expressing NDM-1 (CLB 30005) MITC95” value in test [2] was determined as 0.7813 µM. For the same compound, the “Klebsiella pneumoniae expressing VIM-1 (IHMA 599644) MITC95” value in test [3] was found to be 6.25 µM.

With `CN(C)S(=O)(=O)c1ccc(-c2cccc(S(N)(=O)=O)c2-c2nn[nH]n2)cc1` [Example 59, N~4~′,N~4~′-dimethyl-2-(2H-tetrazol-5-yl)biphenyl-3,4′-disulfonamide], the IC50 is 95 nM at VIM-1 (setting [4]), 36.1 nM at IMP-1 (setting [5]) and 4.38 nM at NDM-1 (setting [5]). Further, the “Serratia marcescens expressing IMP-1 (CL5741) MITC95” value in test [1] was found to be 6.25 µM. Moreover, the “Escherichia coli expressing NDM-1 (CLB 30005) MITC95” value in test [2] amounted to 2.344 µM. For the same compound, the “Klebsiella pneumoniae expressing VIM-1 (IHMA 599644) MITC95” value in test [3] is 200 µM.

Consider `CC(C)n1nccc1-c1cccc(S(N)(=O)=O)c1-c1nn[nH]n1` [Example 106, 3-[1-(1-methylethyl)-1H-pyrazol-5-yl]-2-(2H-tetrazol-5-yl)benzenesulfonamide], for which the figures for the IC50 at VIM-1 (setting [4]), on IMP-1 (setting [5]) and on NDM-1 (setting [5]) were 962 nM, 1800 nM and 9.63 nM, respectively. Besides, the “Serratia marcescens expressing IMP-1 (CL5741) MITC95” value in test [1] was 62.5 µM. Besides, in test [2], the “Escherichia coli expressing NDM-1 (CLB 30005) MITC95” value amounted to 3.906 µM. Further, the “Klebsiella pneumoniae expressing VIM-1 (IHMA 599644) MITC95” value in test [3] came to 200 µM.

On to `NCCCc1ccc(-c2cccc(S(N)(=O)=O)c2-c2nnn[nH]2)cc1` [Example 305, 4′-(3-aminopropyl)-2-(1H-tetrazol-5-yl)-[1,1′-biphenyl]-3-sulfonamide], for which the IC50 was 103 nM against VIM-1 (VIM-1 IC50, VIM-1 enzyme, CCF2-FA fluorescence assay); 333 nM on IMP-1 (setting [6]); 50.2 nM at NDM-1 (setting [7]). Also, the “Serratia marcescens MITC95” value in test [1] was found to be 4.688 µM. Besides, in test [2], the “Escherichia coli MITC95” value worked out at 1.953 µM. Moreover, the “Klebsiella pneumoniae MITC95” value in test [3] was determined as 18.75 µM.

As to `NS(=O)(=O)c1cccc(-c2ccc(N3CCNCC3)nc2)c1-c1nn[nH]n1` [Example 324, 3-(6-(piperazin-1-yl)pyridin-3-yl)-2-(2H-tetrazol-5-yl)benzenesulfonamide], the IC50 at VIM-1 (VIM-1 enzyme, CCF2-FA fluorescence assay, read-out: VIM-1 IC50) was 404 nM; on IMP-1 (setting [6]) it was 1020 nM; on NDM-1 (setting [7]), 105 nM. Besides, the “Serratia marcescens MITC95” value in test [1] was 32.81 µM. The “Escherichia coli MITC95” value in test [2] came out at 13.28 µM. The “Klebsiella pneumoniae MITC95” value in test [3] came out at 37.5 µM.

Consider `CCNC(=O)N1CCC(c2cccc(S(N)(=O)=O)c2-c2nn[nH]n2)CC1` [Example 174, N-ethyl-4-(3-sulfamoyl-2-(2H-tetrazol-5-yl)phenyl)piperidine-1-carboxamide], for which the IC50 worked out at 262 nM on VIM-1 (setting [4]), 403 nM on IMP-1 (setting [5]) and 4.54 nM at NDM-1 (setting [5]). The “Serratia marcescens expressing IMP-1 (CL5741) MITC95” value in test [1] came to 12.5 µM. For the same compound, the “Escherichia coli expressing NDM-1 (CLB 30005) MITC95” value in test [2] is 2.344 µM. Also, the “Klebsiella pneumoniae expressing VIM-1 (IHMA 599644) MITC95” value in test [3] was 100 µM.
